US9409908B2 (priority 2012, dated 2016)
Where a name gives a salt, the structure may show the parent alone.

Experiments:
[1] = molecular target: purified human Factor XIa (Homo sapiens (Human), UniProt P03951); assay: biochemical; format: biochemical; details: read-out: Factor XIa Ki
[2] = molecular target: purified human plasma kallikrein (Homo sapiens (Human), UniProt P03952); assay: biochemical; format: biochemical; details: read-out: Plasma Kallikrein Ki
purified human plasma kallikrein, sequence (P03952 whole entry, looked up): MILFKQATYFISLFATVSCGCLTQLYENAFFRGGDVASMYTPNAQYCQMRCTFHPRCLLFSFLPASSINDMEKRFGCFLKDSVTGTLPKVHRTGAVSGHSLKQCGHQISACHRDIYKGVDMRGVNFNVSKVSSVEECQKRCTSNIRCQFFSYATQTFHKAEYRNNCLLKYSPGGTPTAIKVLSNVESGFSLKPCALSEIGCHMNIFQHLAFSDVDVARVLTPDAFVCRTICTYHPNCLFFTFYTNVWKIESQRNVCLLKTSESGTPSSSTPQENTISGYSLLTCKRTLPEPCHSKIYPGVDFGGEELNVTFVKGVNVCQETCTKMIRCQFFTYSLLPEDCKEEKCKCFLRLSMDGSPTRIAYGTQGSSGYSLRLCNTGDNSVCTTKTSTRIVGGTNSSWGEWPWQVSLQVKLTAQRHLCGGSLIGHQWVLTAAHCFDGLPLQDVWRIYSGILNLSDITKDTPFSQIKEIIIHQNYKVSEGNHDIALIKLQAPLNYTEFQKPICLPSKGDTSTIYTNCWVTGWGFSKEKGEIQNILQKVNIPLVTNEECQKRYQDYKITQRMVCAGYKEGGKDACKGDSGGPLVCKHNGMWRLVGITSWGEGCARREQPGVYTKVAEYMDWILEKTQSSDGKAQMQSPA
purified human plasma kallikrein, sequence (P03952 whole entry partner, looked up): as the sequence (P03952 whole entry, looked up) above

purified human Factor XIa, sequence (P03951 whole entry, looked up): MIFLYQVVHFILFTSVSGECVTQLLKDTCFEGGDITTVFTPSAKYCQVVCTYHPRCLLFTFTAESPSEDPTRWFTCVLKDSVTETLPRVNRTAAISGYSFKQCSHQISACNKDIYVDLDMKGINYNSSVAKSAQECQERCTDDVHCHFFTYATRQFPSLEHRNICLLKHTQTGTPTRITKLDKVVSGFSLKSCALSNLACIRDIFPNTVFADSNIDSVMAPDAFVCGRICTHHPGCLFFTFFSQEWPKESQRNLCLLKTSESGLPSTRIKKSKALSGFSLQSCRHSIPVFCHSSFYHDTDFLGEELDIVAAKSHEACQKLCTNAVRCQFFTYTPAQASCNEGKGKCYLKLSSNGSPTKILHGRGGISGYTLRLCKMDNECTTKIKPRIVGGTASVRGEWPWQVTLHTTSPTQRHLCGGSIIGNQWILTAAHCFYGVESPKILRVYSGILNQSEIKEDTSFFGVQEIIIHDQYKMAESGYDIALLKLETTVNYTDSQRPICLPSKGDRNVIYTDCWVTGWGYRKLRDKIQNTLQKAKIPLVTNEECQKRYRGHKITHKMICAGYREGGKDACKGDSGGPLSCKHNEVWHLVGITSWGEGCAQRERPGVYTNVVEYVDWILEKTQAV
purified human Factor XIa, sequence (P03951 whole entry partner, looked up): as the sequence (P03951 whole entry, looked up) above

| Structure (SMILES) | Ki [1] [nM] | Ki [2] [nM] |
| --- | --- | --- |
| COC(=O)Nc1ccc2c(c1)NC(=O)[C@H](C)CCC[C@H](n1ncc(-c3c(Br)ccc(Cl)c3F)cc1=O)c1cc-2ccn1 [Example 78, Methyl N-[(10R,14S)-14-[4-(6-bromo-3-chloro-2-fluorophenyl)-6-oxo-1,6-dihydropyridazin-1-yl]-10-methyl-9-oxo-8,16-diazatricyclo[13.3.1.0^2,7]nonadeca-1(19),2(7),3,5,15,17-hexaen-5-yl]carbamate, TFA salt] | 0.98 | 5 |
| COC(=O)Nc1ccc2c(c1)NC(=O)[C@H](C)CCC[C@H](n1ncc(-c3c(C#N)ccc(Cl)c3F)cc1=O)c1cc-2ccn1 [Example 79, Methyl N-[(10R,14S)-14-[4-(3-chloro-6-cyano-2-fluorophenyl)-6-oxo-1,6-dihydropyridazin-1-yl]-10-methyl-9-oxo-8,16-diazatricyclo[13.3.1.0^2,7]nonadeca-1(19),2(7),3,5,15,17-hexaen-5-yl]carbamate, TFA salt] | 0.55 | 3 |
| C[C@@H]1CCC[C@H](N2CCC(c3c(F)ccc(Cl)c3F)=CC2=O)c2cc(ccn2)-c2c(F)cccc2NC1=O [Example 80, (10R,14S)-14-[4-(3-Chloro-2,6-difluorophenyl)-6-oxo-1,2,3,6-tetrahydropyridin-1-yl]-3-fluoro-10-methyl-8,16-diazatricyclo[13.3.1.0^2,7]nonadeca-1(19),2(7),3,5,15,17-hexaen-9-one, TFA salt] | 13.6 | 38 |
| C[C@@H]1CCC[C@H](N2CCC(c3c(F)ccc(Cl)c3F)=CC2=O)c2cc(ccn2)-c2cc3ccc(=O)[nH]c3cc2NC1=O [Example 81, (14R,18S)-18-[4-(3-Chloro-2,6-difluorophenyl)-6-oxo-1,2,3,6-tetrahydropyridin-1-yl]-14-methyl-8,12,20-triazatetracyclo[17.3.1.0^2,11.0^4,9]tricosa-1(23),2,4(9),5,10,19,21-heptaene-7,13-dione, TFA salt] | 0.31 | 1 |
| Cc1[nH]c2cc3c(cc2c1C(=O)O)-c1ccnc(c1)[C@@H](N1CCC(c2c(F)ccc(Cl)c2F)=CC1=O)CCC[C@@H](C)C(=O)N3 [Example 83, (13R,17S)-17-[4-(3-Chloro-2,6-difluorophenyl)-6-oxo-1,2,3,6-tetrahydropyridin-1-yl]-6,13-dimethyl-12-oxo-7,11,19-triazatetracyclo[16.3.1.0^2,10.0^4,8]docosa-1(22),2,4(8),5,9,18,20-heptaene-5-carboxylic acid, TFA salt] | 0.06 | 7 |
| C[C@@H]1CCC[C@H](N2CCC(c3c(F)ccc(Cl)c3F)=CC2=O)c2cc(ccn2)-c2cc3c(cc2NC1=O)NC(=O)C3 [Example 84, (13R,17S)-17-[4-(3-Chloro-2,6-difluorophenyl)-6-oxo-1,2,3,6-tetrahydropyridin-1-yl]-13-methyl-7,11,19-triazatetracyclo[16.3.1.0^2,10.0^4,8]docosa-1(22),2,4(8),9,18,20-hexaene-6,12-dione, TFA salt] | 2.68 | 16 |
| Cc1cc2cc3c(cc2[nH]1)NC(=O)[C@H](C)CCC[C@H](N1CCC(c2c(F)ccc(Cl)c2F)=CC1=O)c1cc-3ccn1 [Example 85, (13R,17S)-17-[4-(3-Chloro-2,6-difluorophenyl)-6-oxo-1,2,3,6-tetrahydropyridin-1-yl]-6,13-dimethyl-7,11,19-triazatetracyclo[16.3.1.0^2,10.0^4,8]docosa-1(22),2,4(8),5,9,18,20-heptaen-12-one, TFA salt] | 9.17 | 47 |
| C[C@@H]1CCC[C@H](N2CCC(c3c(F)ccc(Cl)c3F)=CC2=O)c2cc(ccn2)-c2cc3c(cc2NC1=O)NC(=O)CC3 [Example 86, (14R,18S)-18-[4-(3-Chloro-2,6-difluorophenyl)-6-oxo-1,2,3,6-tetrahydropyridin-1-yl]-14-methyl-8,12,20-triazatetracyclo[17.3.1.0^2,11.0^4,9]tricosa-1(23),2(11),3,9,19,21-hexaene-7,13-dione, TFA salt] | 0.72 | 1 |
| C[C@@H]1CCC[C@H](N2CCC(c3c(F)ccc(Cl)c3F)=CC2=O)c2cc(ccn2)-c2ccc(Nc3ccccn3)cc2NC1=O [Example 88, (10R,14S)-14-[4-(3-Chloro-2,6-difluorophenyl)-6-oxo-1,2,3,6-tetrahydropyridin-1-yl]-10-methyl-5-[(pyridin-2-yl)amino]-8,16-diazatricyclo[13.3.1.0^2,7]nonadeca-1(19),2(7),3,5,15,17-hexaen-9-one, 2TFA salt] | 1.04 | 5 |
| C[C@@H]1CCC[C@H](N2CCC(c3c(F)ccc(Cl)c3F)=CC2=O)c2cc(ccn2)-c2ccc(Nc3ccncc3)cc2NC1=O [Example 89, (10R,14S)-14-[4-(3-Chloro-2,6-difluorophenyl)-6-oxo-1,2,3,6-tetrahydropyridin-1-yl]-10-methyl-5-[(pyridin-4-yl)amino]-8,16-diazatricyclo[13.3.1.0^2,7]nonadeca-1(19),2(7),3,5,15,17-hexaen-9-one, 2 TFA salt] | 2.43 | 5 |
| C[C@@H]1CCC[C@H](N2CCC(c3c(F)ccc(Cl)c3F)=CC2=O)c2cc(ccn2)-c2ccc(Nc3ccncn3)cc2NC1=O [Example 90, (10R,14S)-14-[4-(3-Chloro-2,6-difluorophenyl)-6-oxo-1,2,3,6-tetrahydropyridin-1-yl]-10-methyl-5-[(pyrimidin-4-yl)amino]-8,16-diazatricyclo[13.3.1.0^2,7]nonadeca-1(19),2(7),3,5,15,17-hexaen-9-one, 2 TFA salt] | 1.81 | 4 |
| C[C@@H]1CCC[C@H](N2CCC(c3c(F)ccc(Cl)c3F)=CC2=O)c2cc(ccn2)-c2ccc(Nc3cnccn3)cc2NC1=O [Example 93, (10R,14S)-14-[4-(3-Chloro-2,6-difluorophenyl)-6-oxo-1,2,3,6-tetrahydropyridin-1-yl]-10-methyl-5-[(pyrazin-2-yl)amino]-8,16-diazatricyclo[13.3.1.0^2,7]nonadeca-1(19),2(7),3,5,15,17-hexaen-9-one, 2 TFA salt] | 1.4 | 3 |
| CC(C)[C@@H]1CCC[C@H](N2CCC(c3c(F)ccc(Cl)c3F)=CC2=O)c2cc(ccn2)-c2ccccc2NC1=O [Example 95, (10S,14S)-14-[4-(3-chloro-2,6-difluorophenyl)-6-oxo-1,2,3,6-tetrahydropyridin-1-yl]-10-(propan-2-yl)-8,16-diazatricyclo[13.3.1.0^2,7]nonadeca-1(18),2,4,6,15(19),16-hexaen-9-one, TFA salt] | 46.5 | 107 |
| CC(C)[C@H]1CCC[C@H](N2CCC(c3c(F)ccc(Cl)c3F)=CC2=O)c2cc(ccn2)-c2ccccc2NC1=O [Example 96, (10R,14S)-14-[4-(3-chloro-2,6-difluorophenyl)-6-oxo-1,2,3,6-tetrahydropyridin-1-yl]-10-(propan-2-yl)-8,16-diazatricyclo[13.3.1.0^2,7]nonadeca-1(18),2,4,6,15(19),16-hexaen-9-one, TFA salt] | > 422 | 1970 |
| COC(=O)Nc1ccc2c(c1)NC(=O)[C@H](C)CCC[C@H](N1CCC(C3CCCCC3)=CC1=O)c1cc-2ccn1 [Example 98, Methyl N-[(10R,14S)-14-(4-cyclohexyl-6-oxo-1,2,3,6-tetrahydropyridin-1-yl)-10-methyl-9-oxo-8,16-diazatricyclo[13.3.1.0^2,7]nonadeca-1(19),2,4,6,15,17-hexaen-5-yl]carbamate, TFA salt] | 30.1 | 36 |
